Reference: patent publication US20240425508A1, “COMPOUNDS USEFUL IN PREVENTION AND/OR TREATMENT OF SENESCENT CELL-RELATED PATHOLOGIES AND DISEASES” (ISTITUTI CLINICI SCIENTIFICI MAUGERI SPA SB, priority 2022, published 2024)
pIC50: −log10 of the molar value. Read-outs that look alike come from different tables or passages of the source.

Key:
[1] = test system: IMR90 cells; experiment: DAPI staining assay of surviving cells in replicative senescence model; details: DAPI signal, 0.5 μM, 48 h, FIG. 2B
Protocol: Following treatment, the cells were seeded in 96mw. The adherent cells were then fixed with 70% ethanol, incubated for 30 min with a 3 μM DAPI solution; the fluorimetric signal was measured using a multiplate reader (Victor Nivo-Perkin Elmer) set to 350/460 nm (Ligasová A, Koberna K. Quantification of fixed adherent cells using a strong enhancer of the fluorescence of DNA dyes. Sci Rep. 2019 Jun. 18; 9(1):8701. doi: 10.1038/s41598-019-45217-9. PMID: 31213648; PMCID: PMC6581942.).
To confirm data obtained by traditional cell counting by a single operator, a quantification method based on […] was also implemented, exploiting the ability of the DAPI to mark cell nuclei. The cells that survived the action of senolytics were fixed and incubated with the fluorescent indicator. The specific signal was measured using the microplate multimode reader, Victor NIVO (PerkinElmer Tech. GmbH, Germany).

[2] = rats; cited from earlier work
[3] = dogs; cited from earlier work
[4] = test system: primary human fetal lung cells IMR90; assay type: cell-based
Text: Cell culture and replicative senescence. Fetal pulmonary fibroblasts, IMR90, were provided by the European Collection of Authenticated Cell Culture (ECACC) and grown in a complete medium consisting of Minimum Essential Medium (MEM), 10% Fetal Bovine Serum (FBS), 1% penicillin-streptomycin (antibiotic), 1% L-glutamine. Cells with passages from P15 to P21 were used; cells were considered incrementally senescent from passage P19 to passage P21. […] The cells were fixed in paraformaldehyde 2% and incubated with the substrate, X-gal, in a solution at pH 6, at 37° C., overnight (16 h).
The images were acquired using an optical microscope (Leica) with 5× magnification. The images were analyzed using the ImageJ software, quantifying the colorimetric signal emitted by each cell. The mean signal intensity was then normalized for the total number of cells. Survival curves of the compounds. […] The cells were then counted manually, in triplicate, using disposable burker chambers.
13 compounds including K5, with different structures, were assayed using an in vitro senescence model, that was developed utilizing serial passages of primary human fetal lung cells IMR90. […] Senescence was detected using the “Senescence β-Galactosidase Staining Kit” (#9860S, Cell Signaling Technology, Inc., MA, USA). […]

[5] = biological target: T1, recombinant HSP90α (Homo sapiens, UniProt P07900); experiment: HSP90 inhibition activity assay, FITC-geldanamycin competitive binding fluorescence polarization; details: 1 pM-10 μM, 2 h, FITC-labeled geldanamycin
T1 construct: purchased BPS Bioscience 50293
Protocol: HSP90 inhibition activity assay. […] Briefly, the compounds were diluted at different concentrations between 1 pM to 10 μM and incubated for 2 h with the enzyme and substrate at RT while stirring.

[6] = Crossing of the blood-brain barrier after administration; details: in vivo

Compound | cytotoxic effects in the cellular model IMR90 [1] | maximum tolerated dose (MTD) [2] | maximum tolerated dose (MTD) [3] | reduction of the senescent population ([4]; IMR90 P19-P21, first 48 hours of exposure, FIG. 2A (1 μM)) | senolytic action on cells at passages between P19 and P21 ([4]; IMR90 P19-P21 vs P15-P17, 1 μM, 48 h) | pIC50 [5] | crossing of the blood-brain barrier (BBB) [6]
CO[C@H]1/C=C\C=C(/C)C(=O)NC2=CC(=O)C(NCCN(C)C)=C(C[C@@H](C)C[C@H](OC)[C@H](O)[C@@H](C)/C=C(\C)[C@@H]1OC(N)=O)C2=O [Compound 17-DMAG, 17-dimethylaminoethylamino-17-demethoxygeldanamycin] | cytotoxic effects already at low concentrations and also in early passages | 12 mg/m^2 | 8 mg/m^2 |  |  |  | 
Cc1ccccc1-n1c(=O)n(Cc2ccccc2)c(=O)c2[nH]cnc21 [Compound Ia, 1-benzyl-3-(2-methylphenyl)-2,3,6,7-tetrahydro-1H-purine-2,6-dione] |  |  |  | about 50% | act selectively and significantly | 6.14 | enables the crossing of the blood-brain barrier
CC(C)c1cc(-c2n[nH]c(=O)n2-c2ccc3c(ccn3C)c2)c(O)cc1O [Ganetespib] | cytotoxic effects already at low concentrations and also in early passages |  |  |  |  |  | 
